# In patent US11155740B2, “Shale hydration inhibitor and method of use” (M-I L.L.C., priority 2014, dated 2021):
# Assay: OECD 306 marine biodegradation
# Description: In the following example, additive formulations were studied for biodegradability in order to quantify the suitability of the formulations for use in environmentally sensitive areas. One measure of sample toxicity is marine biodegradation data as outlined in Organization for Economic Cooperation and Development, Procedure OECD 306 or BODIS. Under OECD 306, the rules that governing offshore chemical use set forth three tests: bioaccumulation, biodegradation and toxicity. In order for a chemical to be used without restriction offshore in the North Sea it must satisfy two of the following three criteria: (1) biodegradation must be greater than 60%, if less than 20% it is automatically marked for substitution; (2) bioaccumulation as measured by octanol/water partitioning coefficient (log Po/w) must be below 3 (or have a molecular weight >700); and toxicity to the most sensitive marine species (often Skeletonema) must be greater than LC50 or EC50 of 10 ppm.
# During the biodegradation testing, samples were formulated as show below in Table 4, where polyetheramine is a diamino-functionalized JEFFAMINE™.
# Samples were then subjected to biodegradation and results were tabulated as shown below in Table 5. Comparative samples of sodium benzoate and ULTRAHIB™ PLUS, an amine-based shale inhibitor commercially available from M-I L.L.C., were also assayed.
compound,measurement,setting,value
O=C([O-])c1ccccc1.[Na+] [Sodium benzoate],OECD 306 Biodegradation Day 7,Day 7,64%
same,OECD 306 Biodegradation Day 14,Day 14,71%
same,OECD 306 Biodegradation Day 21,Day 21,76%
same,OECD 306 Biodegradation Day 28,Day 28,78%
